Reference: patent publication US9591856B2, “Fungicide compositions comprising fluopyram, at least one succinate dehydrogenase (SDH) inhibitor and optionally at least one triazole fungicide” (priority 2012, dated 2017)

Assays:
[1] = test system: Septoria tritici (SEPTTR); assay: Septoria tritici test (wheat), field trial FRA-AJ28; format: in vivo; conditions: sprayed twice, 47 DAB, BBCH 77, 75 g/ha (I), 75 g/ha (II), 150 g/ha (III), 75 + 75 + 150 g/ha combination; for Rating Scale: % Rating Type: Mean (Plant Part Rated: LEAF): disease rating, untreated control 95.0
[2] = test system: Leptosphaeria nodorum (LEPTNO); assay: Leptosphaeria nodorum test (wheat), field trial DEU-S826; format: in vivo; conditions: sprayed twice, 18 DAB, BBCH 69, 75 g/ha (I), 75 g/ha (II), 150 g/ha (III), 75 + 75 + 150 g/ha combination; for Rating Scale: % Rating Type: Mean (Plant Part Rated: LEALOW): disease rating, untreated control 23.1
[3] = test system: Pyrenophora tritici-repentis (PYRNTR); assay: Pyrenophora tritici-repentis test (wheat), field trial DEU-NWU3; format: in vivo; conditions: sprayed twice, 43 DAB, BBCH 83, 75 g/ha (I), 75 g/ha (II), 150 g/ha (III), 75 + 75 + 150 g/ha combination; for Rating Scale: % Rating Type: Mean (Plant Part Rated: FL-0-1): disease rating, untreated control 2.8
[4] = test system: Septoria tritici (Mycosphaerella graminicola); assay: Protective and curative potential against Septoria tritici in winter wheat, visual assessment of infested leaf area; format: in vivo; conditions: assessed 21 days after inoculation, dose rates Table 5: BIX 0.6, BIX+FLU 0.75, BIX+PTZ 1, BIX+FLU+PTZ 1 l/ha
[5] = test system: Septoria tritici (Mycosphaerella graminicola); assay: Protective and curative potential against Septoria tritici in winter wheat, quantification of Septoria-DNA (SeptoCast); format: in vivo; conditions: 21 days after inoculation, dose rates Table 5
[6] = test system: Drechslera tritici-repentis (DTR, also named Pyrenophora tritici-repentis); assay: Curative potential against Drechslera tritici-repentis (tan spot) in winter wheat; format: in vivo; conditions: infected leaf area 21 days after inoculation; for Efficacy [% Abbott] 1 dai: application 1 day after inoculation; for Efficacy [% Abbott] 4 dai: application 4 days after inoculation
[7] = test system: Alternaria alternata SDH-mutants; conditions: in vitro; Avenot et al., Crop Protection 29 (2010) 643-651; cited from earlier work
[8] = curative, application 1 day after inoculation
[9] = curative, application 4 days after inoculation
[10] = curative, application 8 days after inoculation
[11] = curative, application 11 days after inoculation
[12] = preventive, application 1 day before inoculation
[13] = preventive, application 4 days before inoculation
[14] = preventive, application 8 days before inoculation
[15] = preventive, application 11 days before inoculation
[16] = solo compound at 97.5 g a.i./ha

SMILES: OC(Cc1ccccc1Cl)(Cn1nc[nH]c1=S)C1(Cl)CC1 (stereo not shown) [(III) Prothioconazole, prothioconazole]
- Rating Scale: % Rating Type: Mean (Plant Part Rated: LEAF) [1]: 30.0%
- % ABBOTT [1]: 68.4%
- Efficacy [%] % found [1]: 68.4%
- Rating Scale: % Rating Type: Mean (Plant Part Rated: LEALOW) [2]: 6.4%
- % ABBOTT [2]: 72.4%
- Efficacy [%] % found [2]: 72.4%
- Rating Scale: % Rating Type: Mean (Plant Part Rated: FL-0-1) [3]: 1.8%
- % ABBOTT [3]: 36.4%
- Efficacy [%] % found [3]: 36.4%

SMILES: Cn1cc(C(=O)Nc2ccc(F)cc2-c2ccc(Cl)c(Cl)c2)c(C(F)F)n1 [Bixafen, bixafen]
- Rating Scale: % Rating Type: Mean (Plant Part Rated: LEAF) [1]: 36.3%
- % ABBOTT [1]: 61.8%
- Efficacy [%] % found [1]: 61.8%
- Rating Scale: % Rating Type: Mean (Plant Part Rated: LEALOW) [2]: 14.7%
- % ABBOTT [2]: 36.5%
- Efficacy [%] % found [2]: 36.5%
- Rating Scale: % Rating Type: Mean (Plant Part Rated: FL-0-1) [3]: 2.3%
- % ABBOTT [3]: 18.2%
- Efficacy [%] % found [3]: 18.2%
- Visual assessment [%] ABBOTT, 1 dai [4, 8]: 100%
- Visual assessment [%] ABBOTT, 4 dai [4, 9]: 100%
- Visual assessment [%] ABBOTT, 8 dai [4, 10]: 81.1%
- Visual assessment [%] ABBOTT, 11 dai [4, 11]: 80.2%
- Visual assessment [%] ABBOTT, 1 dbi [4, 12]: 100%
- Visual assessment [%] ABBOTT, 4 dbi [4, 13]: 100%
- Visual assessment [%] ABBOTT, 8 dbi [4, 14]: 96.7%
- Visual assessment [%] ABBOTT, 11 dbi [4, 15]: 88.7%
- DNA Quantification [Septoria DNA], relative copynumbers, 1 dai [5, 8]: 135 n
- DNA Quantification [Septoria DNA], relative copynumbers, 4 dai [5, 9]: 416 n
- DNA Quantification [Septoria DNA], relative copynumbers, 8 dai [5, 10]: 10421 n
- DNA Quantification [Septoria DNA], relative copynumbers, 11 dai [5, 11]: 19806 n
- DNA Quantification [Septoria DNA], relative copy numbers, 1 dbi [5, 12]: 120 n
- DNA Quantification [Septoria DNA], relative copy numbers, 4 dbi [5, 13]: 141 n
- DNA Quantification [Septoria DNA], relative copy numbers, 8 dbi [5, 14]: 428 n
- DNA Quantification [Septoria DNA], relative copy numbers, 11 dbi [5, 15]: 2853 n
- Efficacy [% Abbott] 1 dai [6, 16]: 91 % Abbott
- Efficacy [% Abbott] 4 dai [6, 16]: 38 % Abbott
- Efficacy [% Abbott] 1 dai ([6]; solo compound at 125 g a.i./ha): 91 % Abbott
- Efficacy [% Abbott] 4 dai ([6]; solo compound at 125 g a.i./ha): 32 % Abbott

SMILES: O=C(NCCc1ncc(C(F)(F)F)cc1Cl)c1ccccc1C(F)(F)F [Fluopyram, N-{2-[3-chloro-5-(trifluoromethyl)-2-pyridyl]ethyl}-α,α,α-trifluoro-ortho-toluamide]
- Rating Scale: % Rating Type: Mean (Plant Part Rated: LEAF) [1]: 52.5%
- % ABBOTT [1]: 44.7%
- Efficacy [%] % found [1]: 44.7%
- Rating Scale: % Rating Type: Mean (Plant Part Rated: LEALOW) [2]: 10.9%
- % ABBOTT [2]: 53.0%
- Efficacy [%] % found [2]: 53.0%
- Rating Scale: % Rating Type: Mean (Plant Part Rated: FL-0-1) [3]: 2.3%
- % ABBOTT [3]: 18.2%
- Efficacy [%] % found [3]: 18.2%
- Efficacy [% Abbott] 1 dai [6, 16]: 97 % Abbott
- Efficacy [% Abbott] 4 dai [6, 16]: 49 % Abbott
- effect on mycelial growth of boscalid-resistant isolates carrying SDH-mutations [7]: strongly inhibited the mycelial growth

SMILES: Cn1cc(C(=O)Nc2ccccc2-c2cc(F)c(F)c(F)c2)c(C(F)F)n1 [Fluxapyroxad, fluxapyroxad]
- Efficacy [% Abbott] 1 dai [6, 16]: 93 % Abbott
- Efficacy [% Abbott] 4 dai [6, 16]: 24 % Abbott
- Efficacy [% Abbott] 1 dai ([6]; solo compound at 125 g a.i./ha): 94 % Abbott
- Efficacy [% Abbott] 4 dai ([6]; solo compound at 125 g a.i./ha): 32 % Abbott

SMILES: CC(C)CC(C)c1sccc1NC(=O)c1cn(C)nc1C(F)(F)F (stereo not shown) [penthiopyrad]
- effect on mycelial growth of boscalid-resistant isolates carrying SDH-mutations [7]: not affected
